This note sets out measurements from patent publication US20250195513A1, “DEGRADATION OF IRAK4 BY CONJUGATION OF IRAK4 INHIBITORS WITH E3 LIGASE LIGAND AND METHODS OF USE” (BeiGene, Ltd., priority 2022, published 2025).

Assay [1] addresses T1, IRAK4 (Homo sapiens, UniProt Q9NWZ3).
T1 construct: endogenous in cells; host or cells: Karpas299
T1 sequence (Q9NWZ3 1-460): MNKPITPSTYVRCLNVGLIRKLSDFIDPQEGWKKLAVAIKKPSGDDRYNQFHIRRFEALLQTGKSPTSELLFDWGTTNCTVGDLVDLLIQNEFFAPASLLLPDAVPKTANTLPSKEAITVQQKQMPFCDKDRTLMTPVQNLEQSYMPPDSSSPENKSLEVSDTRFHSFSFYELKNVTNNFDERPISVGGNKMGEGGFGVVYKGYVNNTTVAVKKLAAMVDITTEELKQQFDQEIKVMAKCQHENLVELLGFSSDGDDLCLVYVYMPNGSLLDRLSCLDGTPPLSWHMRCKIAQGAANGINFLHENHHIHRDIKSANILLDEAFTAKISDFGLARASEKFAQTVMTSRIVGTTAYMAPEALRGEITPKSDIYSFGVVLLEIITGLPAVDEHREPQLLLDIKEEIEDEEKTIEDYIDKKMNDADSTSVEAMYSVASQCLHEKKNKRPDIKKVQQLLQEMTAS
Briefly: IRAK4 Degradation Assay (Karpas299, HTRF/TR-FRET). It is filed as cell-based. As to conditions: Karpas-299 cells, 24 h treatment; for Dmax: read-out: IRAK4 in Karpas-299 (24 h) Dmax (%); for DC50: read-out: IRAK4 in Karpas-299 (24 h) DC50. The method in brief:
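Compound potency as DC50 (IC50) came from four-parameter fits of percent IRAK4 degradation. IRAK4 was measured by HTRF (665/620 nm) in lysates of Karpas299 cells seeded at 0.2 million per well. Cells had been treated with compound dilutions for 5 or 24 h.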
Background: Time-resolved FRET reads energy transfer from a long-lived donor to a nearby acceptor.

For assay [2], the target named is T1, IRAK4. Briefly: IRAK4 Degradation Assay with Human Serum (Karpas299, HTRF/TR-FRET). As to conditions: Karpas-299 in human serum, 24 hrs treatment; for DC50: read-out: IRAK4 degradtion with human serum assay DC50; for Dmax: read-out: IRAK4 degradtion with human serum assay Dmax (%). It is filed as cell-based. The method in brief: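 Remaining IRAK4 measured by TR-FRET immunoassay on lysates of Karpas299 cells exposed 24 h to compound dilution series in human serum AB. DC50 derived from a Hill-slope fit of % degradation versus concentration.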

Setting [3] is: maximum percentage of degradation.

Broadly, the Dmax is the greatest extent of degradation seen. The term DC50 denotes the concentration at which degradation of the target reaches its halfway point. Turning to `CC(C)(O)c1cc2nn([C@H]3CC[C@H](N4CCN(C[C@H]5C[C@H](c6cc(F)c([C@H]7CCC(=O)NC7=O)c(F)c6)C5)CC4)CC3)cc2cc1NC(=O)c1ccc2cc(C#N)cnn12` [Example 382, 3-cyano-N-(2-((1R,4r)-4-(4-(((1R,3R)-3-(4-((R)-2,6-dioxopiperidin-3-yl)-3,5-difluorophenyl)cyclobutyl)methyl)piperazin-1-yl)cyclohexyl)-6-(2-hydroxypropan-2-yl)-2H-indazol-5-yl)pyrrolo[1,2-b]pyridazine-7-carboxamide], the results for the Dmax at IRAK4 [1] (setting [3]) and at IRAK4 [2] were 98% and 96%, respectively. Also, the DC50 on IRAK4 [1] is 0.4 nM; on IRAK4 [2] it was 11 nM.
As to `CC(C)(O)c1cc2nn([C@H]3CC[C@H](N4CCN(C[C@H]5C[C@@H](c6cc(F)c([C@H]7CCC(=O)NC7=O)c(F)c6)C5)CC4)CC3)cc2cc1NC(=O)c1ccc2cc(C#N)cnn12` [Example 383, 3-cyano-N-(2-((1R,4r)-4-(4-(((1S,3S)-3-(4-((R)-2,6-dioxopiperidin-3-yl)-3,5-difluorophenyl)cyclobutyl)methyl)piperazin-1-yl)cyclohexyl)-6-(2-hydroxypropan-2-yl)-2H-indazol-5-yl)pyrrolo[1,2-b]pyridazine-7-carboxamide], the Dmax on IRAK4 [1] (setting [3]) is 94%; at IRAK4 [2], 93%. The figures for the DC50 on IRAK4 [1] and on IRAK4 [2] were 1.6 nM and 5.8 nM, respectively.
For `COC[C@@H]1CN(C[C@@H]2CCN(c3cc(F)c([C@H]4CCC(=O)NC4=O)c(F)c3)C2)CCN1[C@H]1CC[C@H](n2cc3cc(NC(=O)c4ccc5cc(C#N)cnn45)c(C(C)(C)O)cc3n2)CC1` [Example 388, 3-cyano-N-(2-((1S,4r)-4-((S)-4-(((S)-1-(4-((R)-2,6-dioxopiperidin-3-yl)-3,5-difluorophenyl)pyrrolidin-3-yl)methyl)-2-(methoxymethyl)piperazin-1-yl)cyclohexyl)-6-(2-hydroxypropan-2-yl)-2H-indazol-5-yl)pyrrolo[1,2-b]pyridazine-7-carboxamide] the same measures were 97%, 98%, 1.1 nM and 12 nM.
For `CC(C)(O)c1cc2nn([C@H]3CC[C@H](N4CCN(CCc5cc(F)c([C@H]6CCC(=O)NC6=O)c(F)c5)C[C@@H]4CC#N)CC3)cc2cc1NC(=O)c1ccc2cc(C#N)cnn12` [Example 389, 3-cyano-N-(2-((1S,4r)-4-((S)-2-(cyanomethyl)-4-(4-((R)-2,6-dioxopiperidin-3-yl)-3,5-difluorophenethyl)piperazin-1-yl)cyclohexyl)-6-(2-hydroxypropan-2-yl)-2H-indazol-5-yl)pyrrolo[1,2-b]pyridazine-7-carboxamide] the same measures were 94%, 100%, 1 nM and 13 nM.
For `CC(C)(O)c1cc2nn([C@H]3CC[C@H](C4CCN(CC5CN(c6cc(F)c([C@H]7CCC(=O)NC7=O)c(F)c6)C5)CC4)CC3)cc2cc1NC(=O)c1ccc2cc(C#N)cnn12` [Example 390, 3-cyano-N-(2-((1r,4r)-4-(1-((1-(4-((R)-2,6-dioxopiperidin-3-yl)-3,5-difluorophenyl)azetidin-3-yl)methyl)piperidin-4-yl)cyclohexyl)-6-(2-hydroxypropan-2-yl)-2H-indazol-5-yl)pyrrolo[1,2-b]pyridazine-7-carboxamide] the same measures were 99%, 99%, 2 nM and 24 nM.
With `CC(C)(O)c1cc2nn([C@H]3CC[C@H](N4CCN(C[C@@H]5CCN(c6cc(F)c([C@H]7CCC(=O)NC7=O)c(F)c6)C5)CC4)CC3)cc2cc1NC(=O)c1ccc2cc(C#N)cnn12` [Example 392, 3-cyano-N-(2-((1S,4r)-4-(4-(((S)-1-(4-((R)-2,6-dioxopiperidin-3-yl)-3,5-difluorophenyl)pyrrolidin-3-yl)methyl)piperazin-1-yl)cyclohexyl)-6-(2-hydroxypropan-2-yl)-2H-indazol-5-yl)pyrrolo[1,2-b]pyridazine-7-carboxamide], the greatest degradation seen (Dmax) on IRAK4 [1] (setting [3]) was 97%; on IRAK4 [2], 98%. For the same molecule, the figures for the 50% degradation concentration (DC50) on IRAK4 [1] and on IRAK4 [2] were 0.9 nM and 11 nM, respectively.
As for `CC(C)(O)c1cc2nn([C@H]3CC[C@H](N4CCN([C@H]5CCN(c6cc(F)c(C7CCC(=O)NC7=O)c(F)c6)C5)CC4)CC3)cc2cc1NC(=O)c1ccc2cc(C#N)cnn12` (stereo partly drawn) [Example 395, 3-cyano-N-(2-((1S,4r)-4-(4-((3S)-1-(4-(2,6-dioxopiperidin-3-yl)-3,5-difluorophenyl)pyrrolidin-3-yl)piperazin-1-yl)cyclohexyl)-6-(2-hydroxypropan-2-yl)-2H-indazol-5-yl)pyrrolo[1,2-b]pyridazine-7-carboxamide], the results for the Dmax on IRAK4 [1] (setting [3]) and at IRAK4 [2] were 97% and 99%, respectively. In addition, the results for the DC50 at IRAK4 [1] and at IRAK4 [2] were 0.8 nM and 21 nM, respectively.
In the same order, the values of `CC(C)(O)c1cc2nn([C@H]3CC[C@H](N4CCN([C@@H]5CCN(c6cc(F)c(C7CCC(=O)NC7=O)c(F)c6)C5)CC4)CC3)cc2cc1NC(=O)c1ccc2cc(C#N)cnn12` (stereo partly drawn) [Example 396, 3-cyano-N-(2-((1R,4r)-4-(4-((3R)-1-(4-(2,6-dioxopiperidin-3-yl)-3,5-difluorophenyl)pyrrolidin-3-yl)piperazin-1-yl)cyclohexyl)-6-(2-hydroxypropan-2-yl)-2H-indazol-5-yl)pyrrolo[1,2-b]pyridazine-7-carboxamide] are 98%, 95%, 0.8 nM and 34 nM.
Regarding `CC(C)(O)c1cc2nn([C@H]3CC[C@H](N4CCN(CC5CN(c6cc(F)c([C@H]7CCC(=O)NC7=O)c(F)c6)C5)CC4)CC3)cc2cc1NC(=O)c1ccc2n1NCC(C#N)=C2` [Example 397, 3-cyano-N-(2-((1r,4r)-4-(4-((1-(4-((R)-2,6-dioxopiperidin-3-yl)-3,5-difluorophenyl)azetidin-3-yl)methyl)piperazin-1-yl)cyclohexyl)-6-(2-hydroxypropan-2-yl)-2H-indazol-5-yl)-1,2-dihydropyrrolo[1,2-b]pyridazine-7-carboxamide], on IRAK4 [1] (setting [3]), the “IRAK4 in Karpas-299 (24 h) Dmax (%)” value is on record as 95%. Moreover, on IRAK4 [1], the DC50 worked out at 1.7 nM. In addition, at IRAK4 [2], the “IRAK4 degradtion with human serum assay Dmax (%)” value was found to be 96% and the DC50 was 12 nM.
For the molecule `CC(C)(O)c1cc2nn([C@H]3CC[C@H](N4CCN(C5CCN(c6cc(F)c([C@H]7CCC(=O)NC7=O)c(F)c6)CC5)C[C@@H]4CO)CC3)cc2cc1NC(=O)c1ccc2cc(C#N)cnn12` [Example 399, 3-cyano-N-(2-((1R,4r)-4-((R)-4-(1-(4-((R)-2,6-dioxopiperidin-3-yl)-3,5-difluorophenyl)piperidin-4-yl)-2-(hydroxymethyl)piperazin-1-yl)cyclohexyl)-6-(2-hydroxypropan-2-yl)-2H-indazol-5-yl)pyrrolo[1,2-b]pyridazine-7-carboxamide], the Dmax on IRAK4 [1] (setting [3]) turned out to be 96%; at IRAK4 [2], 99%. Also, the DC50 is 0.5 nM at IRAK4 [1] and 11 nM at IRAK4 [2].
In the same order, the values of `CC(C)(O)c1cc2nn([C@H]3CC[C@H](N4CCN(CC5CN(c6cc(F)c([C@H]7CCC(=O)NC7=O)c(F)c6)C5)C[C@@H]4CO)CC3)cc2cc1NC(=O)c1ccc2cc(C#N)cnn12` [Example 400, 3-cyano-N-(2-((1R,4r)-4-((R)-4-((1-(4-((R)-2,6-dioxopiperidin-3-yl)-3,5-difluorophenyl)azetidin-3-yl)methyl)-2-(hydroxymethyl)piperazin-1-yl)cyclohexyl)-6-(2-hydroxypropan-2-yl)-2H-indazol-5-yl)pyrrolo[1,2-b]pyridazine-7-carboxamide] are 97%, 97%, 0.5 nM and 3.8 nM.
In the case of `CC(C)(O)c1cc2nn(C34CC(N5CCN(CC6CCN(c7ccc8c(c7)CN(C7CCC(=O)NC7=O)C8=O)CC6)CC5)(C3)C4)cc2cc1NC(=O)c1ccc2cc(C#N)cnn12` (stereo not drawn) [Example 401, 3-cyano-N-(2-(3-(4-((1-(2-(2,6-dioxopiperidin-3-yl)-1-oxoisoindolin-5-yl)piperidin-4-yl)methyl)piperazin-1-yl)bicyclo[1.1.1]pentan-1-yl)-6-(2-hydroxypropan-2-yl)-2H-indazol-5-yl)pyrrolo[1,2-b]pyridazine-7-carboxamide], the Dmax on IRAK4 [1] (setting [3]) and on IRAK4 [2] was 94% in each case. Moreover, the DC50 at IRAK4 [1] is 1.2 nM; at IRAK4 [2] it was 7.4 nM.
